In patent publication US20220023258A1, “METHODS OF TREATING CONDITIONS RELATED TO THE S1P1 RECEPTOR” (Arena Pharmaceuticals, Inc., priority 2018, published 2022):
“Also recorded” adds a separate entry of the source. Counter-ions that a name gives are not always drawn.

Legend:
[1] = system: patients with ulcerative colitis; assay: Dose-ranging study in ulcerative colitis: safety; conditions: for serious adverse events (SAEs): placebo 11.1%;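 on all read-outs here: Double-blind randomized parallel-group trial versus placebo, with the study drug given orally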
Procedure: Patients were instructed to take their capsule on an empty stomach (overnight fast of approximately 8 hours) and to avoid eating for approximately 1 hour after dosing.

[2] = system: healthy adult subjects; assay: Multiple ascending dose study: heart rate, blood pressure, QTc; format: in vivo, human; conditions: for Maximum post-dose QTc, Change from Baseline Mean / Maximum post-dose QTc, Change from Baseline Median / Maximum post-dose QTc, Change from Baseline Min, Max / Maximum post-dose QTc, On Treatment Mean (SD): Day 1 to Day 23
Procedure: A randomized, double-blind, placebo-controlled, sequential, ascending, multiple dose study to assess the safety, tolerability, and pharmacokinetics of the L-arginine salt of Compound 1 administered to healthy adult subjects was conducted. This study was designed to evaluate the safety, tolerability, pharmacokinetics, and pharmacodynamics of the L-arginine salt of Compound 1.
Cohort 1 was dosed with 0.7 mg (by administering two 0.35 mg formulations) for 21 days. Cohort 2 was dosed with 1.35 mg (by administering both a 0.35 mg formulation and a 1 mg formulation) for 21 days. Cohort 3 was dosed with 2.0 mg for 21 days. Cohort 4 was dosed with 0.35 mg for 7 days and then with 2.0 mg for 14 days. Cohort 5 was dosed with 0.5 for 7 days and then with 3.0 mg (by administering both a 1 mg formulation and a 2 mg formulation) for 14 days.
The following safety assessments were conducted: physical examinations with ophthalmoscopy, clinical laboratory tests (serum chemistry, coagulation, and urinalysis), vital signs, continuous telemetry (12 lead ECG), safety ECGs, pulmonary function testing (PFT), serum protein electrophoresis (SPEP) and serum immunoelectrophoresis (IEP), and adverse event reporting.

[3] = 0.35 mg for 7 days then 2.0 mg for 14 days
[4] = 0.5 mg for 7 days then 3.0 mg for 14 days
[5] = Day 1 to Day 28, 0.35 mg for 7 days then 2.0 mg for 14 days
[6] = Day 1 to Day 28, 0.5 mg for 7 days then 3.0 mg for 14 days

O=C(O)C[C@H]1CCc2c1[nH]c1ccc(OCc3ccc(C4CCCC4)c(C(F)(F)F)c3)cc21 [L-arginine salt of Compound 1]
% of Patients with Serious TEAE ([1]; 1 mg (n = 52)): (5.8) %
% of Patients with TEAE Leading to Discontinuation of Study Drug ([1]; 1 mg (n = 52)): (5.8) %
% of Patients with any TEAE ([1]; 1 mg (n = 52)): (59.6) %
Number of Deaths of Any Reason ([1]; 1 mg (n = 52)): 0
Number of Patients with Serious TEAE ([1]; 1 mg (n = 52)): 3
Number of Patients with TEAE Leading to Discontinuation of Study Drug ([1]; 1 mg (n = 52)): 3
Number of Patients with any TEAE ([1]; 1 mg (n = 52)): 31
discontinuations from study related to bradycardia or AV block ([1]; 1 mg and 2 mg q.d., 12 weeks): no discontinuations from study related to bradycardia or AV block
liver function tests (LFTs) compared to placebo ([1]; 1 mg and 2 mg q.d., 12 weeks): no increases in liver function tests
reports of macular edema or pulmonary function test abnormalities ([1]; 1 mg and 2 mg q.d., 12 weeks): no reports of macular edema or pulmonary function test abnormalities; also recorded: no reports of macular edema; and no reports of abnormal pulmonary function tests
serious adverse events related to heart rate changes or AV block ([1]; 1 mg and 2 mg q.d., 12 weeks): No serious adverse events related to heart rate changes or AV block
severe or life-threatening infection ([1]; 1 mg and 2 mg q.d., 12 weeks): No severe or life-threatening infection occurred
tolerability ([1]; 1 mg and 2 mg q.d., 12 weeks): well tolerated
serious adverse events (SAEs) ([1]; 1 mg q.d.): 5.8%
% of Patients with TEAE Leading to Discontinuation of Study Drug ([1]; 2 mg (n = 50)): (8.0) %
% of Patients with any TEAE ([1]; 2 mg (n = 50)): (56.0) %
Number of Deaths of Any Reason ([1]; 2 mg (n = 50)): 0
Number of Patients with Serious TEAE ([1]; 2 mg (n = 50)): 0
Number of Patients with TEAE Leading to Discontinuation of Study Drug ([1]; 2 mg (n = 50)): 4
Number of Patients with any TEAE ([1]; 2 mg (n = 50)): 28
serious adverse events (SAEs) ([1]; 2 mg q.d.): 0%
mean change (decrease) in heart rate, hourly ECGs ([1]; Day 1, any time point, both 1 mg and 2 mg groups): < 10 bpm
mean decrease in heart rate from baseline ([1]; after Day 1 through 12 weeks, either dose group (1 mg, 2 mg)): ≤ 6 bpm
Maximum post-dose QTc, Change from Baseline Mean [2, 3]: −0.10 MS
Maximum post-dose QTc, Change from Baseline Median [2, 3]: 0.50 MS
Maximum post-dose QTc, Change from Baseline Min, Max [2, 3]: −19.00 to 17.00 MS
Maximum post-dose QTc, On Treatment Mean (SD) [2, 3]: 411.10 (19.88) MS
Maximum post-dose QTc, Change from Baseline Mean [2, 4]: 5.60 MS
Maximum post-dose QTc, Change from Baseline Median [2, 4]: 5.00 MS
Maximum post-dose QTc, Change from Baseline Min, Max [2, 4]: −5.00 to 15.00 MS
Maximum post-dose QTc, On Treatment Mean (SD) [2, 4]: 425.10 (13.90) MS
Maximum post-dose QTc, Change from Baseline Mean ([2]; 0.7 mg for 21 days): 3.60 MS
Maximum post-dose QTc, Change from Baseline Median ([2]; 0.7 mg for 21 days): 3.50 MS
Maximum post-dose QTc, Change from Baseline Min, Max ([2]; 0.7 mg for 21 days): −8.00 to 16.00 MS
Maximum post-dose QTc, On Treatment Mean (SD) ([2]; 0.7 mg for 21 days): 418.40 (16.56) MS
Maximum post-dose QTc, Change from Baseline Mean ([2]; 1.35 mg for 21 days): 8.20 MS
Maximum post-dose QTc, Change from Baseline Median ([2]; 1.35 mg for 21 days): 6.00 MS
Maximum post-dose QTc, Change from Baseline Min, Max ([2]; 1.35 mg for 21 days): −5.00 to 25.00 MS
Maximum post-dose QTc, On Treatment Mean (SD) ([2]; 1.35 mg for 21 days): 423.60 (16.14) MS
Maximum post-dose QTc, Change from Baseline Mean ([2]; 2.0 mg for 21 days): 4.00 MS
Maximum post-dose QTc, Change from Baseline Median ([2]; 2.0 mg for 21 days): 4.50 MS
Maximum post-dose QTc, Change from Baseline Min, Max ([2]; 2.0 mg for 21 days): −8.00 to 13.00 MS
Maximum post-dose QTc, On Treatment Mean (SD) ([2]; 2.0 mg for 21 days): 421.20 (10.61) MS
Minimum post-dose Diastolic BP, Change from Baseline Mean [2, 5]: −7.90 mmHg
Minimum post-dose Diastolic BP, Change from Baseline Median [2, 5]: −6.00 mmHg
Minimum post-dose Diastolic BP, Change from Baseline Min, Max [2, 5]: −19.00 to −1.00 mmHg
Minimum post-dose Diastolic BP, On Treatment Mean (SD) [2, 5]: 50.80 (5.65) mmHg
Minimum post-dose Heart Rate, Change from Baseline Mean [2, 5]: −10.60 BPM
Minimum post-dose Heart Rate, Change from Baseline Median [2, 5]: −7.00 BPM
Minimum post-dose Heart Rate, Change from Baseline Min, Max [2, 5]: −35.00 to 3.00 BPM
Minimum post-dose Heart Rate, On Treatment Mean (SD) [2, 5]: 52.00 (4.74) BPM
Minimum post-dose Systolic BP, Change from Baseline Mean [2, 5]: −13.00 mmHg
Minimum post-dose Systolic BP, Change from Baseline Median [2, 5]: −13.00 mmHg
Minimum post-dose Systolic BP, Change from Baseline Min, Max [2, 5]: −28.00 to 0.00 mmHg
Minimum post-dose Systolic BP, On Treatment Mean [2, 5]: 94.30 mmHg
Minimum post-dose Diastolic BP, Change from Baseline Mean [2, 6]: −6.30 mmHg
Minimum post-dose Diastolic BP, Change from Baseline Median [2, 6]: −7.00 mmHg
Minimum post-dose Diastolic BP, Change from Baseline Min, Max [2, 6]: −13.00 to 3.00 mmHg
Minimum post-dose Diastolic BP, On Treatment Mean (SD) [2, 6]: 50.20 (4.21) mmHg
Minimum post-dose Heart Rate, Change from Baseline Mean [2, 6]: −7.30 BPM
Minimum post-dose Heart Rate, Change from Baseline Median [2, 6]: −6.50 BPM
